Experimental data reported in patent US8962032B2, “Modulator” (The Queen's University of Belfast, priority 2009, dated 2015).

Test system: C57bl/6 bone marrow derived macrophages
Assay: LPS-induced TNFα and IL-6 in C57bl/6 BMDM with controls
Format: cell-based
Conditions: C57bl/6 BMDM re-stimulated with 1 ng/ml LPS ± 25 μg/ml nanoparticles or controls
Description: FIG. 9 illustrates reduction of TNFα and IL-6 production from C57bl/6 bone marrow derived macrophages (BMDM) incubated with LPS and α2,8 sialic acid conjugated PLGA nanoparticles. The BMDM were stimulated with 1 ng/ml LPS overnight to up-regulate Siglec-E. Cells were washed twice in serum-free DMEM prior to resting for 2 hr. Cells were re-stimulated with 1 ng/ml LPS±α2,8 sialic acid conjugated PLGA nanoparticles (NP) or appropriate controls—Unconjugated (nude) NP, Sialic acid washed, but unconjugated NP, Sialic acid at same concentration as NP or nanoparticles conjugated to the non-Siglec binding glucosamine. TNFα and IL-6 was measured by ELISA. One way ANOVA was used to determine significance.
4×10^4/well C57bl/6 bone marrow derived macrophages were stimulated with 1 ng/ml LPS overnight to up-regulate Siglec-E. Cells were washed twice in serum-free DMEM prior to resting for 2 hr. The results of cells re-stimulated with 1 ng/ml LPS±α2,8 sialic acid conjugated PLGA nanoparticles (NP) or appropriate controls—Unconjugated (nude) nanoparticles, Sialic acid washed—but unconjugated nanoparticles, Sialic acid at same concentration as nanoparticles or nanoparticles conjugated to the non-Siglec binding glucosamine are shown. TNFα and IL-6 was measured by ELISA. One way ANOVA with post-hoc Tukey test was used to determine significance. P=0.001.

## alpha 2-8 diacetylneuraminic acid [sialic acid]
  IL-6 (ELISA): insufficient to cause the effect observed
  TNFα (ELISA): insufficient to cause the effect observed
